Test results: patent US20090093470A1, “PHOTODYNAMIC THERAPY PROCESS AND PHOTOSENSITIZER COMPOSITIONS THEREFOR” (Ondine International, Ltd., priority 2007, published 2009)

Test system: E. Coli (ATCC 25922)
Experiment: Photodynamic disinfection kill models (planktonic culture and biofilm)
Type: cell-based
Conditions: 670 nm laser illumination for 60 seconds
Protocol: A 0.01% (v/v) aqueous solution of methylene blue was reduced substantially entirely to the reduced state using ascorbic acid. […] The formulation was then tested for antibacterial efficacy against E. Coli (ATCC® 25922™) using two established photodynamic disinfection kill models (planktonic culture and biofilm) with a 670 nm laser energy source to provide desired illumination for 60 seconds. […] FIG. 2 is a bar graph showing the eradication of E. coli expressed in log^10 reduction in bacterial counts for the various samples used in the experiment. […]

Structure (SMILES): O=C1O[C@H]([C@@H](O)CO)C(O)=C1O [ascorbic acid]
- reduction in bacterial counts (viable count) of E. coli: did not itself demonstrate any antibacterial effects
